From patent US10344026B2, “Compositions and methods of targeting mutant K-ras” (NANTBIO, INC., priority 2017, dated 2019)
pEC50, pIC50: −log10 of the molar value.

Experiments:
Assay type in all cases: cell-based
[1] = tested on: U87-MG (K-Ras wild type cell line); test: Viability assay (CellTiterBlue, 72 hr) U87-MG; conditions: Homo sapiens, U-87 MG, GI50, CellTiterBlue, U87-MG K-Ras wild-type
Procedure: (§1) Viability assays were performed on exemplary compounds and Table 2 below lists exemplary results for selected compounds tested on K-Ras wild type cell lines (Ishikawa, U87-MG, HCC827, and A375) and various K-Ras mutant cell lines (Panc1-G12D; Panc10.05-G12D; HCT116-G31D). Results are expressed in μM and corresponding structures are shown in FIGS. 2A-2G and Examples 1-152, above.
(§2) Cells are counted and seeded at 1000 cells/36 ul medium/well into 384-well microplates. Cells are returned to 37° C. CO2 incubator for 18 hr. Drug is made as 200× in DMSO and diluted into medium to 10×. To each well is added 4 ul 10× drug, and plates are returned to the incubator. Final assay DMSO concentration is 0.5%. After 72 hr, 8 ul CellTiterBlue (Promega) is added to each well. After 3 hr, fluorescence (Ex550/Em590) is determined on the Victor Plate Reader (Perkin Elmer). Assay range is determined by DMSO control (100% viability) and 100 uM tamoxifen (0% viability). GI50 values are calculated using Graphpad Prism.

Panc1-G12D = test: Viability assay (CellTiterBlue, 72 hr) Panc1; conditions: Homo sapiens, PANC-1, GI50, CellTiterBlue, Panc1 K-Ras G12D, read-out: 72 hr Cell Viability Panc1 (G12D)
Procedure: as §1, §2

HCT116-G31D = test: Viability assay (CellTiterBlue, 72 hr) HCT116; conditions: Homo sapiens, HCT-116, GI50, CellTiterBlue, HCT116 K-Ras G13D, read-out: 72 hr Cell Viability HCT116 (G13D)
Procedure: as §1, §2

[2] = tested on: HCC827 (K-Ras wild type cell line); test: Viability assay (CellTiterBlue, 72 hr) HCC827; conditions: Homo sapiens, GI50, CellTiterBlue, HCC827 K-Ras wild-type
Procedure: as §1, §2

K-Ras G12D = target: T1, K-Ras G12D (Homo sapiens, UniProt P01116, G12D); test: G-LISA Ras activation, 293H cells transfected with G12D mutant; conditions: compound 1 hour
T1 construct: expressed in transfected cells; host or cells: 293H cells
Procedure: (§3) 293H cells were seeded in 6-wells at 0.6×10^6 cells per well and transfected next day with 5 μg of Ras wild-type, or G12C, G12D or G12V mutant DNA plasmid vector using transfection reagent Lipofectamine 3000. Next day cells were treated with 3.125-25 μM of Ras compounds for 1 hour. Wild-type transfected cells were subsequently treated with 100 ng/ml EGF for 2 minutes. Cells were washed once in ice-cold PBS, lysed in complete lysis buffer on ice, and processed by G-LISA according to Cytoskeleton protocol.

wild type K-Ras = target: T2, wild type K-Ras (Homo sapiens, UniProt P01116); test: G-LISA Ras activation, 293H cells transfected with Ras wild-type, EGF stimulated; conditions: compound 1 hour, then 100 ng/ml EGF 2 minutes
T2 construct: expressed in transfected cells; host or cells: 293H cells
Procedure: as §3

Panc10.05-G12D = test: Viability assay (CellTiterBlue, 72 hr) Panc10.05; conditions: Homo sapiens, Panc1005, GI50, CellTiterBlue, Panc10.05 K-Ras G12D, read-out: 72 hr Cell Viability Panc10.05 (G12D)
Procedure: as §1, §2

[3] = tested on: Ishikawa (K-Ras wild type cell line); test: Viability assay (CellTiterBlue, 72 hr) Ishikawa; conditions: Homo sapiens, GI50, CellTiterBlue, Ishikawa K-Ras wild-type
Procedure: as §1, §2

[4] = tested on: phospho-ERK in Panc10.05 (G12D); test: In-Cell Western phospho-ERK, Panc10.05; conditions: Homo sapiens, Panc1005, 1 h; Panc10.05, one hour treatment; read-out: In-Cell Western Panc10.05 (G12D) Erk (P)
Procedure: (§4) In-cell phosphorylation assays for Erk and Akt were performed on several of the compounds and exemplary results are shown in Table 3 below using HCC827 and A375 cell lines for wild type K-Ras and Panc1 and Panc10.05 cell lines for G12D K-Ras mutants. Results are expressed in μM and corresponding structures are shown in FIGS. 2A-2G and Examples 1-152, above.
(§5) Cells are seeded in complete medium into black sided, clear-bottom 384-well microplates at 3000 cells/[…]/well. Plates are returned to 37° C. CO2 incubator for 18 hr. Drug is made as 200× in DMSO and diluted into medium to 10×. To each well is added 4 ul 10× test article or controls, and plates are returned to the incubator. Final assay DMSO concentration is 0.5%. After one hour, cells are fixed in formaldehyde, rinsed & permeabilized with triton X-100, and blocked with BSA/Goat serum blocking solution. Primary phospho-Akt and phospho-ERK antibodies are added and plates are incubated overnight at 4° C. Plates are rinsed with Tween-20 wash buffer and secondary antibody (Goat anti-rabbit, Thermofisher) is added. After 2 hours, plates are rinsed in Tween-20 wash buffer, and then PBS. Plates are imaged on the Celigo (Nexcelom) and cellular fluorescence is quantitated. Full inhibition of phospho-Akt is achieved with 1 uM BEZ235 (Sellekchem), while full inhibition of phospho-ERK is achieved with 1 uM MEK Inhibitor II Calbiochem). EC50 values are calculated using Graphpad Prism.

[5] = tested on: phospho-Akt in Panc1 (G12D); test: In-Cell Western phospho-Akt, Panc1; conditions: Homo sapiens, PANC-1, 1 h; Panc1, one hour treatment; read-out: In-Cell Western Panc1 (G12D) Akt (P)
Procedure: as §4, §5

[6] = tested on: phospho-ERK in Panc1 (G12D); test: In-Cell Western phospho-ERK, Panc1; conditions: Homo sapiens, PANC-1, 1 h; Panc1, one hour treatment; read-out: In-Cell Western Panc1 (G12D) Erk (P)
Procedure: as §4, §5

T2 sequence (P01116 whole entry): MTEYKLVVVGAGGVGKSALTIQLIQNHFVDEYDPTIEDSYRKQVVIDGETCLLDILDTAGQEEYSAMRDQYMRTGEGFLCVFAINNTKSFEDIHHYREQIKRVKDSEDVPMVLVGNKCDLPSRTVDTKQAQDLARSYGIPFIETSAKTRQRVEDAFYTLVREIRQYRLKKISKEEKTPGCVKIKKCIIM
T1 sequence (P01116 whole entry G12D): as the sequence (P01116 whole entry) above, with G12D counted along it

Row | SMILES | pIC50 [1] | pIC50 (Panc1-G12D) | pIC50 (HCT116-G31D) | pIC50 [2] | IC50 (K-Ras G12D) [µM] | IC50 (wild type K-Ras) [µM] | pIC50 (Panc10.05-G12D) | pIC50 [3] | pEC50 [4] | pEC50 [5] | pEC50 [6]
1 | COc1cccc(CN2C(=O)CCc3cc(-c4csc(NC(=O)c5oc(C)nc5C)n4)ccc32)c1 [Compound 76, N-(4-(1-(3-methoxybenzyl)-2-oxo-1,2,3,4-tetrahydroquinolin-6-yl)thiazol-2-yl)-2,4-dimethyloxazole-5-carboxamide] | 5.70 | 5.30 | 5.40 | 4.77 | 13.9 | 12.6 | 6.17 | 5.30 | – | – | –
2 | Cc1nc(C)c(C(=O)Nc2nc(-c3ccc4c(c3)CCC(=O)N4CC3CCCCC3)cs2)o1 [Compound 62, N-(4-(1-(cyclohexylmethyl)-2-oxo-1,2,3,4-tetrahydroquinolin-6-yl)thiazol-2-yl)-2,4-dimethyloxazole-5-carboxamide] | 5.52 | 5.30 | 5.40 | – | 21.7 | > 25 | 5.70 | 5.52 | 5.22 | 5.22 | 5.70
3 | CCc1nc(C)c(C(=O)Nc2nc(-c3ccc4c(c3)CCC(=O)N4Cc3ccccc3)cs2)o1 [Compound 59, N-(4-(1-benzyl-2-oxo-1,2,3,4-tetrahydroquinolin-6-yl)thiazol-2-yl)-2-ethyl-4-methyloxazole-5-carboxamide] | 5.00 | 5.70 | 5.22 | – | 5.8 | 6.5 | 4.96 | 5.40 | 5.52 | 5.22 | 5.52
4 | Cc1nc(C)c(C(=O)Nc2nc(-c3ccc4c(c3)CCC(=O)N4Cc3cncc4ccccc34)cs2)o1 [Compound 82, N-(4-(1-(isoquinolin-4-ylmethyl)-2-oxo-1,2,3,4-tetrahydroquinolin-6-yl)thiazol-2-yl)-2,4-dimethyloxazole-5-carboxamide] | 4.89 | < 4.60 | 5.00 | < 4.60 | 24.6 | > 25 | < 4.60 | 5.40 | – | – | –
5 | Cc1nc(C)c(C(=O)Nc2nc(-c3ccc4c(c3)CCC(=O)N4CC3CCCN(C(=O)OC(C)(C)C)C3)cs2)o1 (stereo not shown) [Compound 86, tert-butyl 3-((6-(2-(2,4-dimethyloxazole-5-carboxamido)thiazol-4-yl)-2-oxo-3,4-dihydroquinolin-1(2H)-yl)methyl)piperidine-1-carboxylate] | 5.70 | 5.30 | 5.70 | 5.70 | 6.1 | 16.7 | 5.30 | – | – | – | –
6 | Cc1nc(C2CCOC2)oc1C(=O)Nc1nc(-c2ccc3c(c2)CCC(=O)N3)cs1 (stereo not shown) [Compound 10, 4-methyl-N-(4-(2-oxo-1,2,3,4-tetrahydroquinolin-6-yl)thiazol-2-yl)-2-(tetrahydrofuran-3-yl)oxazole-5-carboxamide] | 5.30 | 5.40 | 5.30 | 4.64 | 22 | > 25 | 5.70 | 5.70 | – | – | –
7 | Cc1nc(C2CC2)oc1C(=O)Nc1nc(-c2ccc3c(c2)CCC(=O)N3CCc2ccccc2)cs1 [Compound 61, 2-cyclopropyl-4-methyl-N-(4-(2-oxo-1-phenethyl-1,2,3,4-tetrahydroquinolin-6-yl)thiazol-2-yl)oxazole-5-carboxamide] | 5.89 | 5.80 | 5.52 | – | 5.1 | 8.5 | 6.06 | 5.68 | 5.70 | 5.70 | 6.28
8 | Cc1nc(C)c(C(=O)Nc2nc(-c3ccc4c(c3)CCC(=O)N4Cc3cccc4c3OCO4)cs2)o1 [Compound 73, N-(4-(1-(benzo[d][1,3]dioxol-4-ylmethyl)-2-oxo-1,2,3,4-tetrahydroquinolin-6-yl)thiazol-2-yl)-2,4-dimethyloxazole-5-carboxamide] | 5.52 | 5.15 | 5.52 | 4.92 | 19.2 | 18.8 | 6.13 | 5.40 | – | – | –
9 | Cc1nc(C2CCOC2)sc1C(=O)Nc1nc(-c2ccc3c(c2)CCC(=O)N3Cc2cccnc2)cs1 (stereo not shown) [Compound 84, 4-methyl-N-(4-(2-oxo-1-(pyridin-3-ylmethyl)-1,2,3,4-tetrahydroquinolin-6-yl)thiazol-2-yl)-2-(tetrahydrofuran-3-yl)thiazole-5-carboxamide] | 5.40 | 5.15 | 5.40 | 5.52 | 4.9 | 19.9 | 5.15 | – | – | – | –
10 | Cc1nc(C2CCOC2)oc1C(=O)Nc1nc(-c2ccc3c(c2)CCC(=O)N3Cc2cccnc2)cs1 (stereo not shown) [Compound 85, 4-methyl-N-(4-(2-oxo-1-(pyridin-3-ylmethyl)-1,2,3,4-tetrahydroquinolin-6-yl)thiazol-2-yl)-2-(tetrahydrofuran-3-yl)oxazole-5-carboxamide] | 5.30 | 5.10 | 5.40 | 5.30 | 7.6 | 23.4 | 5.22 | – | – | – | –
11 | CCn1cc(C(=O)Nc2nc(-c3ccc4c(c3)CCC(=O)N4)cs2)c(C)n1 [Compound 25, 1-ethyl-3-methyl-N-(4-(2-oxo-1,2,3,4-tetrahydroquinolin-6-yl)thiazol-2-yl)-1H-pyrazole-4-carboxamide] | 5.70 | 5.70 | 5.70 | 5.15 | 6.6 | 10.7 | 6.11 | 5.96 | – | – | –
12 | Cn1nc2ccccc2c1C(=O)Nc1nc(-c2ccc3c(c2)CCC(=O)N3)cs1 [Compound 26, 2-methyl-N-(4-(2-oxo-1,2,3,4-tetrahydroquinolin-6-yl)thiazol-2-yl)-2H-indazole-3-carboxamide] | 5.85 | 5.70 | 6.00 | 5.22 | 10.6 | > 25 | 5.96 | > 6.10 | – | – | –
13 | Cc1nc(C)c(C(=O)Nc2nc(-c3ccc4c(c3)CCC(=O)N4Cc3cccc(N)c3)cs2)o1 [Compound 90, N-(4-(1-(3-aminobenzyl)-2-oxo-1,2,3,4-tetrahydroquinolin-6-yl)thiazol-2-yl)-2,4-dimethyloxazole-5-carboxamide] | 5.40 | 5.00 | 5.52 | 5.40 | 14.2 | 16.6 | 5.10 | – | – | – | –
